Data as given in patent US8025894B2, “Innovative formulation” (Endura S.p.A., priority 2005, dated 2011).

System: Bemisia tabaci (whitefly) biotype B
Assay: Mortality assay (leaf dip bioassay)
Format: in vivo
Conditions: adult insects on treated cotton leaf discs, mortality evaluated at 24 and 48 hours
Experimental: The “leaf dip bioassay” used for testing the activity of insecticides against Bemisia tabaci (whitefly) biotype B, was similar to that described by Cahill, M et al, Bull. Entomol. Res. 85, 181-187, 1995.
Cotton plants (Gossypium hirsutum L.) were grown without any exposure to the insecticides. The leaves were cut up into disc shapes and immersed in an aqueous solution of insecticide containing 0.01% of Agral then left to dry at 25° C.
Control leaves were immersed in Agral and distilled water only.
About 20 adult insects were placed onto the small discs of treated cotton leaf.
The insects were allowed to feed and maximum mortality was evaluated at 24 and 48 hours.
LC50% a.i. (=active ingredient) and LC99% a.i. indicate the quantity of insecticide able to achieve mortality for 50% and 99% of the insects tested.
As a comparison, the data obtained with commercial bifenthrin in the absence of the synergistic compound (PBO) and the data obtained with commercial bifenthrin in a mixture with the same quantity of PBO present in the formulation product of example 1 are given in the same table.

Q: Which LC50% a.i. (quantity of insecticide giving 50% mortality) does the source give for Cc1c(COC(=O)[C@@H]2[C@H](/C=C(\Cl)C(F)(F)F)C2(C)C)cccc1-c1ccccc1 (racemic) [Bifenthrin] here?
A: 0.01 ppm

Q: And the LC99% a.i. (quantity of insecticide giving 99% mortality)?
A: 257 ppm
